Results published in article PMC5609913, “Structure based design, synthesis and activity studies of small hybrid molecules as HDAC and G9a dual inhibitors” (Oncotarget, 2017).
Like-named read-outs stand apart in the source and are kept apart here.

Experiments:
[1] = test system: HDAC; test: Homogeneous cellular histone deacetylase assay, K562; assay type: cell-based, human
Protocol: The enzymatic activity of HDAC was measured in intact cells using the homogeneous cellular assay method. A cell-permeable peptide Boc-K(Ac)-AMC used as the HDAC substrate, after deacetylation it is cleaved by trypsin to release the fluorescent 7-amino-4-methylcoumarin (AMC) and further quantified.
The manual assay was developed by Thomas's group. […] After 24 h, 9 μl inhibitors with different concentration were added to the HeLa cells and incubation was continued for 3 h under cell culture conditions. After this treatment period, 10 μl of a 2 mM stock solution of the substrate Boc-K(Ac)-AMC was added into the 96 well plates with Hela cells and inhibitors. […] A549 and K562 cell lines used the same method, respectively. IC50s were calculated using GraphPad Prizm statistical package with sigmoidal variable slope dose response curve fit.

[2] = test system: MDA-MB-231 cells; test: Cell anti-proliferation / toxicity assay (CCK-8), MDA-MB-231; assay type: cell-based; conditions: Homo sapiens, MDA-MB-231, 72 h, CCK-8, read-out: EC50 MDA-MB-231
Protocol: Initial tests designed around assessing whether a synergistic effect would be observed in real when a combination of G9a inhibitor and HDAC inhibitor used in conjunction.
Cell anti-proliferation assays were performed to determine the toxicity of these inhibitors. Several cell lines (MDA-MB-231, MCF-7 and A549) were incubated and then treated with varying concentrations of the inhibitors for 72 h, respectively. […] These compounds were further evaluated against the control cell line HEK293 to test their toxicity with a non-cancerous cell line.
A549, MDA-MB-231, MCF-7 and HEK293 cells were seeded at 8000-10000 cells (100 μl) in white 96-well plates and pre-incubate the plate for 24 h under standard cell culture conditions, respectively. And then the cells were exposed to the different inhibitors with various concentrations for 72 h. Finally, 10 μl of CCK-8 kit solution was added to each well and incubated for 3-4 hours under standard cell culture conditions, and the 96 well plates were measured the absorbance at 450 nm using Perkin–Elmer Wallac Victor ^3V 1420 multi label plate reader (Perkin–Elmer, Wellesley, USA). EC50s were calculated using GraphPad Prizm statistical package with sigmoidal variable slope dose response curve fit.

[3] = molecular target: T1, Mouse histone methyltransferase G9a (969-1263) (Mus musculus, UniProt Q9Z148); test: MALDI-TOF methylation study of G9a enzymatic activity (H3 peptide, SAM); assay type: biochemical
T1 construct: The 6His-sumo mG9a (969-1263) protein was purified using the following procedure; 6His-sumo (N, cleaved yes); made in house; host or cells: Escherichia coli BL21 (DE3)
T1 sequence (Q9Z148 969-1263): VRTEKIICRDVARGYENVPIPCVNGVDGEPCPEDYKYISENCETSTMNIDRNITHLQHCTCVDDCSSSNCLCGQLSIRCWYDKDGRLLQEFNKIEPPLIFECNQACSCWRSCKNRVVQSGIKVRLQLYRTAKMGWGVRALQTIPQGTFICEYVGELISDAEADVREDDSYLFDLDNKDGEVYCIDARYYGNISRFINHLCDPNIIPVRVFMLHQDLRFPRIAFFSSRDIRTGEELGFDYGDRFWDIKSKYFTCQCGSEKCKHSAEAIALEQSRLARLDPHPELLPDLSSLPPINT
Protocol: Figure 3 compounds were synthesized from the commercially available starting material 1. An initial displacement reaction using a primary amine was used to introduce the C4 selective substitution, with the second displacement to introduce the linker at the C2 position following the microwave assisted reaction previously reported. Boc-protected ethylene diamine was treated with compound 2 at 160°C in a microwave for 10 min to yield product 3 with excellent yield. Afterward, the amine 3 was deprotected with TFA/DCM, and the free amine was treated with corresponding monomethyl esters (carbon chain 2-6) in the presence of coupling reagent EDCI and HOBt for about 8 hours to produce mono methyl ester substituted at the C2 position. The ester compounds further treated with hydroxylamine in water to get the corresponding hydroxamic acid derivatives, which were purified using reverse phase flash chromatography to obtain compounds 4-7 and 4a-7a in good yield. Synthesis of compounds in Figure 4 requires the C6 demethoxy core, and this was synthesized according to the reported procedure to yield 10 [45]. […] Compounds with the HDAC pharmacophore at the C4 position (Figure 2B) were synthesized from the starting material 1. […] A parallel synthesis and testing strategy were used in establishing the primary SAR, with the clear rationalization of the structure and activity at each stage we could reduce the synthetic targets. Initially, we evaluated the G9a potential after the introduction of HDAC pharmacophore. A biochemical assay using MALDI-TOF was used to visualize the effects of the synthesized compounds on G9a enzymatic activity, we carried out a biochemical reaction involving target enzyme G9a, methyl donor SAM and substrate H3 peptide at a concentration of 400 nM, 10 μM and 5 μM respectively.
Mouse histone methyltransferase G9a (969-1263) cDNA was amplified from the cDNA of BALB/c mouse thymus, and the fragment was sub-cloned into a vector with a 6His-sumo tag. The mouse G9a (mG9a) was expressed in Escherichia coli BL21 (DE3) by the addition of 1 mM isopropyl-1-thio-D-galactopyranoside (IPTG) and incubated overnight at 16°C.
The in vitro inhibition of G9a by the synthesized compounds were measured by MALDI-TOF mass spectrum (Bruker MALDI TOF/TOF Analyzer). 400 nM purified G9a, 5 μM synthesized histone H3 (1-21) and 10 μM non-radioactive S-adenosyl methionine (Sigma) were added in reaction buffer (50 mM HEPES pH 8.0, 5 μg/ml BSA and 0.1% β-Mercaptoethanol) with or without inhibitors (5 μM). The reaction was incubated at room temperature for 30 min, and stopped by TFA. 1 μl of the sample was mixed with CHCA matrix and m/z peaks were obtained at reflection positive mode. The results of mass spectrum were analyzed using the Bruker flex analysis software, a detailed description of data processing is provided as supplementary information (S3).
[…]
MALDI spectrums were collected using Bruker flex % conversion to product is also C, from this to get the control software and analyzed by flex analysis. After %maximal activity (%MA), C was compared to the % labelling each cluster peaks of H3K9Me0, H3K9Me1 conversion when no inhibitor was used (D). and H3K9Me2 for all of the tested concentrations, area Finally % inhibition was found by subtracting under the cluster (AUC) were extracted by using the same %MA from 100 […]
flex analysis software. % abundance of each peak was Example: % methylation levels and % inhibition calculated by following formula, when used 5 μM compound 14
A = % Abundance of (H3K9Me0) = area of A = 13.09
B = % Abundance of (H3K9Me1) = area of % conversion when no inhibitor was used D = 84.43 H3K9Me1/ (area of H3K9Me0+area of H3K9Me1 + area (average of six measurements) […]

[4] = Table 3, Boc-K(Ac)-AMC substrate, intact K562 cells, read-out: K562 IC50
[5] = Table 6, mean ± SD of triplicates
[6] = Supplementary Table 1, inhibitor 5 μM, 30 min, average of 3 values
[7] = Supplementary Table 2, NA = not active up to highest concentration tested (100 μM), >100 = IC50 not reached at 100 μM, read-out: IC50-HDAC K562
[8] = Supplementary Table 4, >100 = not reached at 100 μM

| SMILES | inhibition at 5 µM [3, 6] [%] | IC50 [1, 7] [µM] | EC50 [2, 8] [µM] | other results |
| --- | --- | --- | --- | --- |
| COc1ccc2c(NC3CCN(Cc4ccccc4)CC3)nc(NCCNC(=O)CCCCCCC(=O)NO)nc2c1 [Compound 13, N1-(2-((4-((1-benzylpiperidin-4-yl)amino)-7-methoxyquinazolin-2-yl)amino)ethyl)-N8-hydroxyoctanediamide] | 24.9 ± 17.4 | – | – | IC50 [1, 4]: 27.8 ± 0.59 µM; EC50 [2, 5]: 89.3 ± 1.23 µM |
| COc1ccc2c(NC3CCN(Cc4ccccc4)CC3)nc(NCCNC(=O)CCCCCC(=O)NO)nc2c1 [Compound 14, N1-(2-((4-((1-benzylpiperidin-4-yl)amino)-7-methoxyquinazolin-2-yl)amino)ethyl)-N7-hydroxyheptanediamide] | 29.7 ± 23.3 | – | – | IC50 [1, 4]: 5.74 ± 1.23 µM; EC50 [2, 5]: 10 ± 1.66 µM; inhibition at 5 µM ([3]; worked example, single spectrum, 5 μM compound): 69.5%; A = % Abundance of (H3K9Me0) ([3]; worked example, 5 μM compound): 13.09%; B = % Abundance of (H3K9Me1) ([3]; worked example, 5 μM compound): 61.18%; C = % Abundance of (H3K9Me2) (% conversion to product) ([3]; worked example, 5 μM compound): 25.72%; activity at 5 µM ([3]; worked example, 5 μM compound, relative to no inhibitor (84.43), read-out: % maximal activity (%MA)): 30.5% |
| COc1cc2nc(N3CCCN(C)CC3)nc(NC3CCN(C(=O)CCCCCC(=O)NO)CC3)c2cc1OC [Compound 20, 7-(4-((6,7-dimethoxy-2-(4-methyl-1,4-diazepan-1-yl)quinazolin-4-yl)amino)piperidin-1-yl)-N-hydroxy-7-oxoheptanamide] | 14.6 ± 15.8 | > 100 | > 100 | – |
| COc1ccc2c(NC3CCN(C)CC3)nc(NCCNC(=O)CCCCC(=O)NO)nc2c1 [Compound 15a, N1-hydroxy-N6-(2-((7-methoxy-4-((1-methylpiperidin-4-yl)amino)quinazolin-2-yl)amino)ethyl)adipamide] | 47.9 ± 12.9 | > 100 | 77.6 | – |
| COc1cc2nc(NCCNC(=O)CCCCCC(=O)NO)nc(NC3CCN(C(C)C)CC3)c2cc1OC [Compound 5a, N1-hydroxy-N7-(2-((4-((1-isopropylpiperidin-4-yl)amino)-6,7-dimethoxyquinazolin-2-yl)amino)ethyl)heptanediamide] | 47.5 ± 9.32 | – | > 100 | – |
| COc1cc2nc(NCCNC(=O)CCCC(=O)NO)nc(NC3CCN(C(C)C)CC3)c2cc1OC [Compound 7a, N1-hydroxy-N5-(2-((4-((1-isopropylpiperidin-4-yl)amino)-6,7-dimethoxyquinazolin-2-yl)amino)ethyl)glutaramide] | 15 ± 15.7 | – | > 100 | – |
| COc1cc2nc(N3CCCN(C)CC3)nc(NC3CCN(C(=O)CCCCCCC(=O)NO)CC3)c2cc1OC [Compound 19, 8-(4-((6,7-dimethoxy-2-(4-methyl-1,4-diazepan-1-yl)quinazolin-4-yl)amino)piperidin-1-yl)-N-hydroxy-8-oxooctanamide] | 10.7 ± 25.9 | > 100 | > 100 | – |
| COc1ccc2c(NC3CCN(C)CC3)nc(NCCNC(=O)CCCC(=O)NO)nc2c1 [Compound 16a, N1-hydroxy-N5-(2-((7-methoxy-4-((1-methylpiperidin-4-yl)amino)quinazolin-2-yl)amino)ethyl)glutaramide] | 40.3 ± 13.8 | > 100 | 90.5 | – |
| COc1cc2nc(NCCNC(=O)CCCC(=O)NO)nc(NC3CCN(C)CC3)c2cc1OC [Compound 7, N1-(2-((6,7-dimethoxy-4-((1-methylpiperidin-4-yl)amino)quinazolin-2-yl)amino)ethyl)-N5-hydroxyglutaramide] | 19.6 ± 20.9 | – | > 100 | – |
| COc1cc2nc(NCCNC(=O)CCCCCCC(=O)NO)nc(NC3CCN(C)CC3)c2cc1OC [Compound 4, N1-(2-((6,7-dimethoxy-4-((1-methylpiperidin-4-yl)amino)quinazolin-2-yl)amino)ethyl)-N8-hydroxyoctanediamide] | 27 ± 12.2 | – | > 100 | – |
| COc1cc2nc(NCCNC(=O)CCCCCC(=O)NO)nc(NC3CCN(Cc4ccccc4)CC3)c2cc1OC [Compound 5b, N1-(2-((4-((1-benzylpiperidin-4-yl)amino)-6,7-dimethoxyquinazolin-2-yl)amino)ethyl)-N7-hydroxyheptanediamide] | 38 ± 4.99 | – | 12.3 ± 3.27 | – |
| COc1ccc2c(NC3CCN(Cc4ccccc4)CC3)nc(NCCNC(=O)CCCCC(=O)NO)nc2c1 [Compound 15, N1-(2-((4-((1-benzylpiperidin-4-yl)amino)-7-methoxyquinazolin-2-yl)amino)ethyl)-N6-hydroxyadipamide] | 69.1 ± 24.5 | > 100 | 95.2 | – |
| COc1ccc2c(NC3CCN(Cc4ccccc4)CC3)nc(NCCNC(=O)CCCC(=O)NO)nc2c1 [Compound 16, N1-(2-((4-((1-benzylpiperidin-4-yl)amino)-7-methoxyquinazolin-2-yl)amino)ethyl)-N5-hydroxyglutaramide] | 40.3 ± 13.8 | > 100 | 38.1 | – |
| COc1cc2nc(NCCNC(=O)CCCCCCC(=O)NO)nc(NC3CCN(C(C)C)CC3)c2cc1OC [Compound 4a, N1-hydroxy-N8-(2-((4-((1-isopropylpiperidin-4-yl)amino)-6,7-dimethoxyquinazolin-2-yl)amino)ethyl)octanediamide] | 11.2 ± 3.68 | – | > 100 | – |
